{
  "source": "patent US9585888B2",
  "about": "“Reduction of toxicity of multi-targeting antifolates” (Isofol Medical AB, priority 2003, dated 2017)",
  "key": {"tumor growth": {"test_system": "tumor growth", "settings": "cited from earlier work"}, "[1]": {"test_system": "experimental adenocarcinoma", "experimental": "Eight inbred female Wistar rats were during general anesthesia inoculated in the central liver lobe with 0.1 ml of 1.0 million viable tumor cells of an experimental adenocarcinoma. On day 5 the animals were relaparotomized during general anesthesia, the body weight was recorded and the size of the solitary liver tumor was measured with vernier calipers.\nThe animals were randomly allocated to two groups. Group 1 received intravenous injections of ALIMTA (pemetrexed) 0.01 mg/kg and group 2 received 0.1 mg/kg of ALIMTA. Both groups received 15 mg/kg of R-5,10-CH2FH4 immediately following the injections of ALIMTA. Therapy was administered through intravenous injections via the tail vein on days 6-8 and days 11-12. On day 13 all animals were sacrificed by an overdose of anesthesia.\nThe body weights were recorded and the size of the liver tumors was measured. The wet weights of the excised liver tumor and spleen were recorded."}, "TS": {"test_system": "TS", "test": "TS expression levels after Tomudex intravenous bolus injection in colorectal cancer patients", "assay_type": "in vivo", "settings": "multi-targeting antifolate only", "experimental": "In this experiment, the effect of a multi-targeting antifolate, i.e. Tomudex (raltitrexed), was shown.\nNine colorectal cancer patients were included in the study, and the expression levels were measured in actin, which is a protein serving as an important structural molecule for the cytoskeletons of many eukaryotic cells."}, "[2]": {"test": "Tissue concentration of methylene-THF in tumor biopsy after i.v. bolus injection of folates", "assay_type": "in vivo, patients", "settings": "tumor biopsy at 20 minutes after i.v. bolus injection; compared with leucovorin", "experimental": "The level of increase of tissue concentration of methylene-THF after administration of leucovorin and methylene-THF, respectively, has been compared. Patients operated upon due to liver metastases were given a dose of folates. Biopses were taken from the tumor before i.v. bolus injection of leucovorin on methylenetetrahydrofolate. At 20 minutes a new tumor biopsy was taken and the concentration of MTHF was assayed."}},
  "note": "Where two headings read alike, the source gives them in different places.",
  "data": [
    {"smiles": "O=c1[nH]cc(F)c(=O)[nH]1", "note": "[5-FU, 5-fluorouracil]", "values": [
      {"measurement": "tumor growth suppression", "setting": "tumor growth; 5-FU administered to folate depleted animals 1 hr after folinic acid", "value": "approximately 80%"},
      {"measurement": "tumor growth suppression", "setting": "tumor growth; control mice", "value": "approximately 50%"},
      {"measurement": "effect on tumor growth", "setting": "tumor growth; folinic acid administered 12 hr before 5-FU", "value": "tumor growth stimulation"}
    ]},
    {"smiles": "Nc1nc2[nH]cc(CCc3ccc(C(=O)N[C@@H](CCC(=O)O)C(=O)O)cc3)c2c(=O)[nH]1", "note": "[ALIMTA, pemetrexed]", "values": [
      {"measurement": "extrahepatic tumor growth", "setting": "[1]; ALIMTA 0.01 mg/kg i.v. + 15 mg/kg R-5,10-CH2FH4 (group 1), day 13", "value": "extrahepatic tumor growth in the abdominal cavity as metastases to the lungs"},
      {"measurement": "extrahepatic metastases", "setting": "[1]; highest Alimta dose (0.1 mg/kg i.v.) + 15 mg/kg R-5,10-CH2FH4 (group 2)", "value": "no extrahepatic metastases were recorded"}
    ]},
    {"smiles": "Cc1nc2ccc(CN(C)c3ccc(C(=O)N[C@@H](CCC(=O)O)C(=O)O)s3)cc2c(=O)[nH]1", "note": "[Tomudex, raltitrexed]", "values": [
      {"measurement": "clinical toxicity", "setting": "TS; clinical findings", "value": "severe toxic effects from the bowel made it impossible to continue the treatment"},
      {"measurement": "effect on normal mucosa versus tumor (TS expression levels)", "setting": "TS; intravenous bolus injection", "value": "the normal mucosa is actually more adversely affected than the tumor"}
    ]},
    {"smiles": "Nc1nc2c(c(=O)[nH]1)N(C=O)C(CNc1ccc(C(=O)N[C@@H](CCC(=O)O)C(=O)O)cc1)CN2", "note": "(stereo partly drawn) [folinic acid]", "values": [
      {"measurement": "effect on tumor growth", "setting": "tumor growth; folinic acid administered without 5-FU", "value": "pronounced growth stimulation"}
    ]},
    {"smiles": "Nc1nc2c(c(=O)[nH]1)N1CN(c3ccc(C(=O)N[C@@H](CCC(=O)O)C(=O)O)cc3)CC1CN2", "note": "(stereo partly drawn) [methylene-THF, 5,10-methylene-tetrahydrofolate]", "values": [
      {"measurement": "tissue concentration of methylene-THF in tumor", "setting": "[2]", "value": "greater tissue concentration of methylene-THF than leucovorin"}
    ]}
  ]
}
